Values of other authors as cited in patent EP4729055A1, “TREATMENT OF DISORDERS USING SPHINGOSINE-1-PHOSPHATE RECEPTOR MODULATORS” (The Provost, Fellows, Foundation Scholars, & the other …, priority 2024, dated 2026).

SMILES: CCCCCCCCc1ccc(CCC(N)(CO)CO)cc1 [fingolimod, 2-Amino-2-[2-(4-octylphenyl)ethyl]propane-1,3-diol]
- log P: 5.5
